The subject of the experiment is CEM cells HIV-1 protection, formazan growth assay. Put plainly: NCI AIDS Antiviral Assay. As to conditions: for IC50: measured here: growth of uninfected CEM cells. A digest of the protocol: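 Protection of CEM cells against HIV-1 was scored from cell growth (soluble formazan) across five concentrations, with parallel uninfected cells. Lack of protection may reflect toxicity.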

Active and inactive are the calls of the source.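 The calls were made as follows: active = compounds giving half or more protection of infected cells from virus-caused growth loss, again on retest; inactive = the rest.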

The EC50 is the concentration giving half of the maximal effect. Usually IC50 stands for the concentration at which inhibition is half-maximal. Read a low IC50 as higher potency.

In the case of `COc1ccc(NC(=O)CC/C(CC(=O)c2ccco2)=N/Nc2ccc([N+](=O)[O-])cc2[N+](=O)[O-])cc1`, the EC50 was more than 52.5 µM and the IC50 was determined as 30.9 µM. As for `CCn1ncc2c1nc(-c1ccccc1)c[n+]2[O-]`, the EC50 is more than 200 µM and the IC50 is more than 200 µM. For `COC(=O)[C@@]12CC[C@]1(C(=O)OC)C1C(C)=CC(=O)O[C@@]12C` (some centres undefined), the EC50 was more than 200 µM and the half-maximal inhibitory concentration (IC50) is more than 200 µM.

In the case of `CC(C)/C=C/C1=C(O)c2ccccc2C(=O)C1=O`, the result was inactive.

In the case of `CCCCS(=O)(=O)c1ccc(O)c(C(=O)Nc2cccc(C(F)(F)F)c2)c1`, the EC50 is more than 170 µM and the IC50 is 1.91 µM.

As to `COc1cc2c(cc1OC)C(=O)/C(=C/c1ccccc1)CC2`, the EC50 was more than 200 µM and the IC50 was 117 µM. Taken in the same sequence, the figures for `Cc1cc2[nH]c3c(C#N)c4c(c(=O)n3c2cc1C)CCCC4` were more than 200 µM and more than 200 µM. Taken in the same sequence, the figures for `CN(C)/N=C(\CCN1CCCC1)CC(c1ccccc1)c1c(O)c2ccccc2oc1=O` (centres undefined) were more than 39.8 µM and more than 39.8 µM. For `O=C1CCCC1CC(CN1CCOCC1)Sc1nnnn1-c1ccccc1` (centres undefined) the same measures were more than 200 µM and more than 200 µM. In the case of `Cn1cnnc1Sc1c([N+](=O)[O-])nc(-c2ccc([N+](=O)[O-])cc2)n1C`, the EC50 was more than 100 µM and the IC50 came out at 2.95 µM.

Consider `O=C(O)c1cccc(Nc2c(C(=O)O)cccc2[N+](=O)[O-])c1`, for which the EC50 was more than 200 µM and the IC50 is 6.31 µM. `CCC12CCCN(Cc3ccccc3)C1c1c(n(C)c3ccccc13)CC2` (centres undefined): the EC50 was more than 66.1 µM and the IC50 is more than 66.1 µM. On to `CC(=O)CCC(NC(C)=O)(C(=O)O)C(=O)O`, for which the EC50 was more than 200 µM and the IC50 was more than 200 µM. Turning to `O=C1CCCC(=O)NNC(=O)Nc2ccc(cc2)Cc2ccc(cc2)NC(=O)NN1`, the EC50 is more than 30.9 µM and the IC50 is more than 30.9 µM. For `NC1=Nc2ccccc2Sc2nncn21`, the EC50 was more than 200 µM and the IC50 was found to be 151 µM. Regarding `c1c2c(cc3c1OCO3)C(c1onc3cc4c(cc13)OCO4)=NCC2`, the result was inactive. Still for that read-out and setting: for `COc1ccc(/C(Cl)=C(\C=O)c2ccccc2)cc1OC` the value was “inactive”. Take `O=S(=O)(O)c1cc(N=Nc2ccc(O)c3ccccc23)ccc1/C=C/c1ccc(N=Nc2ccc(O)c3ccccc23)cc1S(=O)(=O)O`: the EC50 was 13.5 µM and the IC50 came out at 50.1 µM. Taken in the same sequence, the figures for `CC[N+](C)(CC)CCC(O)(c1ccccc1)c1ccccc1` were more than 200 µM and more than 200 µM. For `C=Cc1cc[n+](CCCCCC[n+]2ccc(C=C)cc2)cc1` the same measures were more than 200 µM and more than 200 µM. `COCCN(CCNC(=O)c1cccc2c(N)c3cccc(C)c3nc12)CCOC`: the EC50 was more than 2 µM and the IC50 stood at 0.269 µM.

With `CN(CC#N)C1CCC[C@]1(O)C#C[Si](C)(C)c1ccccc1` (some centres undefined), the EC50 was more than 60.3 µM and the half-inhibitory concentration (IC50) stood at 57.5 µM.

In the case of `COc1c(Cl)cc(Cc2cc(Cl)c(OC)c([N+](=O)[O-])c2)cc1[N+](=O)[O-]`, the EC50 was more than 200 µM and the IC50 is more than 200 µM. On to `Cc1ccc(OCCn2cc(Nc3ccccc3)c(=O)[nH]c2=O)cc1`, for which the EC50 was more than 200 µM and the IC50 was more than 200 µM. With `O=C(CC1C=CCS1(=O)=O)NCc1ccccc1` (centres undefined), the EC50 is more than 97.7 µM and the IC50 was more than 97.7 µM.

For the compound `O=C1[C@H]2C(c3ccccc3)=NN(C(=O)c3ccccc3)[C@H]2C(=O)N1c1ccccc1`, the result was inactive.

Turning to `CC(C)(C)N1C(=O)N=[N+](/C(=C(\c2ccccc2)n2nc([O-])n(C(C)(C)C)c2=O)c2ccccc2)C1=O`, the EC50 was more than 100 µM and the IC50 was more than 100 µM. Regarding `N#Cc1nc(/C=C/c2cccnc2)oc1N`, the EC50 was more than 200 µM and the IC50 is more than 200 µM. Consider `C=CC[C@@]1(C)CCCCCCCCC[C@@](C)(CC=C)C1=O`, for which the EC50 was more than 200 µM and the IC50 was 115 µM.

Source of the values: PubChem BioAssay AID179 (DTP/NCI, 2004).
